Results taken from US9908908B2, “Tenofovir prodrug and pharmaceutical uses thereof” (Jiangsu Hansoh Pharmaceutical Co., Ltd., priority 2012, dated 2018).
Like-named read-outs stand apart in the source and are kept apart here.

What was measured:
hepatitis B virus (HBV) = test: In vitro anti-hepatitis B virus activity (HBV DNA-replication, dot blot); assay type: cell-based
Experimental: HepG 2.2.15 cell was used as the hepatitis B virus (HBV) vehicle to determine the inhibition effect of the compounds on DNA-replication of HBV.
Test method: HepG 2.2.15 cells were seeded into a 96-well culture plate. Various dilutions of test samples and positive control were added, respectively, after 24 hours, in which a cell control well was set. The medium was replaced with culture containing various dilutions of test samples after 72 hours. The supernatants and HepG 2.2.15 cells were collected after 6 days of culture.

HepG 2.2.15 cells = test: Cytotoxicity test (CellTiter-Blue); assay type: cell-based
Experimental: (§1) Test method: HepG 2.2.15 cells were seeded into a 96-well culture plate and various dilutions of test samples and positive control were added, respectively. CellTiter-Blue (Promega, Catalog #G8081) was added for 6 days of culture.

[1] = Cytotoxicity test (CellTiter-Blue); assay type: cell-based; conditions: human; HepG 2.2.15 cells, 6 days of culture; read-out: Toxicity CC50
Experimental: as §1

[2] = Stability test in acidic medium (hydrochloric acid solution pH 2.0); assay type: physicochemical; conditions: for Change value / Purity after 6 hours / Initial purity: Acid medium (pH = 2); for Change value / Purity after 6 hours: 37° C., 6 hours; for Initial purity: initial sample
Experimental: 4.5 mL of 36% hydrochloric acid was transferred into a 1 L volumetric flask and diluted with water to 1 L to prepare a stock solution. Then 10 mL of the above solution was transferred into a 50 mL volumetric flask and diluted with water to 50 mL to prepare the hydrochloric acid solution with pH 2.0.
5.0 mg of GS-7340 were transferred into a 5 mL volumetric flask and mixed with 2.5 mL of isopropyl alcohol to dissolve GS-7340, and then the hydrochloric acid solution (pH 2.0) was added to 5 mL. The solution was shaken well and filtered for using.
5.0 mg of compound Ia1 were transferred into a 5 mL volumetric flask and mixed with 2.5 mL of isopropyl alcohol to dissolve compound Ia1, and then the hydrochloric acid solution (pH 2.0) was added to 5 mL. The solution was shaken well and filtered for using.
(§2) The prepared sample was filled into the chromatography vial as the initial sample and immediately injected. Meanwhile, the rest of the samples were put into a 37° C. incubator, and were injected into the HPLC system after 6 hours.

[3] = Stability test in simulated gastric juice (pepsin, pH 2.0); assay type: physicochemical; conditions: for Change value / Purity after 6 hours: 37° C., 6 hours; for Initial purity: initial sample
Experimental: 10 ml of the stock solution and 500.0 mg of pepsin were transferred into a 50 mL volumetric flask and diluted with water to 50 ml, which was then subjected to ultrasound to dissolve the pepsin (the solution was not clear now) and then filtered to give a clear solution as simulated gastric juice.
5.0 mg of GS-7340 were transferred into a 5 mL volumetric flask and mixed with 2.5 mL of isopropyl alcohol to dissolve GS-7340, and then the simulated gastric juice was added to 5 mL. The solution was shaken well and filtered for using.
5.0 mg of compound Ia1 were transferred into a 5 mL volumetric flask and mixed with 2.5 mL of isopropyl alcohol to dissolve compound Ia1, and then the simulated gastric juice was added to 5 mL. The solution was shaken well and filtered for using.
as §2

[4] = Metabolic stability in fresh human whole blood and distribution test in PBMCs; assay type: in vitro ADME; conditions: for active metabolite-tenofovir detected in plasma (in words): after incubation with fresh human whole blood
Experimental: Different tenofovir prodrugs were incubated together with fresh human whole blood at 37° C. Plasma and PBMCs were separated, respectively, from the whole blood (Ficoll density gradient centrifugation method) after 1 hour and 2 hours incubation to determine the concentrations of prototype drug and metabolite-tenofovir in plasma and PBMCs. The PBMCs were counted via cell counter and each PBMC was treated as 200 fL to calculate intracellular drug concentration.
20 μL of internal standard solution (400 ng/mL SN-38 solution), […], methanol-water (50:50, v/v), and 200 μL acetonitrile were added to 100 μL plasma sample or PBMC sample, respectively. The mixture was mixed by vortex for 1 min and centrifuged for 5 min (14000 rpm). 20 μL supernatant and 180 μl mobile phase were mixed by vortex for 1 min, and 10 μL of the above mixture was injected into LC/MS/MS for analysis.

HIV-1 (IIIb) = test: microbe, parasite or virus in culture; assay type: cell-based
Experimental: 1) MT-2 cells were infected with HIV-1 (IIIb) to form multiplicity of infection (MOI) 0.01 TCID50 per cell.
2) The mixture of virus and cells was incubated in a 384-well plate for 3 days.
4) The supernatant was transferred to a new plate and incubated with reporter cells (HeLa) for 24 hours.
5) Detecting beta-GAL activity to evaluate anti-HIV activity.
(§3) 7) The antiviral activity and cytotoxicity were calculated according to the following equation: Antiviral activity (%)=100−(Detection value−Maximum value)/(Minimum value−Maximum value)*100 Cytotoxicity (%)=100−(Detection value−Maximum value)/(Minimum value−Maximum value)*100 8) EC50 and CC50 were calculated with Fit Curve of Graphpad Prism 5 (the results are shown in Table 4).

[5] = Cytotoxicity in cells free of virus (anti-HIV test); assay type: cell-based; conditions: human
Experimental: (§4) 3) Cells for the cytotoxic detection were incubated in a 384-well plate for 3 days.
(§5) 6) Luminescent signal of the cells free of virus was detected to evaluate cytotoxicity after incubation for 3 days.
as §3

[6] = background statement; cited from earlier work
MT-2 cells = test: Cytotoxicity in cells free of virus (anti-HIV test); assay type: cell-based
Experimental: as §4, §5, §3

[7] = Hepatitis B virus, HepG2.2.15, 144 h
[8] = 0 hour, initial concentration, fresh human whole blood
[9] = 1 hour incubation at 37° C., in PBMCs
[10] = 1 hour incubation at 37° C., in plasma
[11] = 2 hour incubation at 37° C., in PBMCs
[12] = 2 hour incubation at 37° C., in plasma
[13] = Human immunodeficiency virus 1, IIIB, MT2, 72 h
[14] = cells free of virus, 3 days, luminescent signal, read-out: Toxicity CC50

Structure (SMILES) | IC50 (hepatitis B virus (HBV); [7]) [nM] | CC50 at 6 days [1] [nM] | inhibitory effect on HBV-DNA replication (in words) (hepatitis B virus (HBV); HepG 2.2.15 cells) | inhibitory effect on HBV-DNA replication compared with positive control GS7340 (hepatitis B virus (HBV); HepG 2.2.15 cells) | cytotoxicity (in words) (HepG 2.2.15 cells) | other results
CC(C)OC(=O)[C@H](C)N[P@](=O)(CO[C@H](C)Cn1cnc2c(N)ncnc21)Oc1ccccc1 [GS-7171, reference compound] |  |  |  |  |  | IC50 (hepatitis B virus (HBV); HepG 2.2.15 cells, 6 days of culture, HBV DNA-replication by dot blot, read-out: IC50): 35 nM; CC50 (HepG 2.2.15 cells; 6 days of culture, read-out: Toxicity CC50): > 10000 nM
CC(C)OC(=O)[C@H](C)N[P@](=O)(CO[C@H](C)Cn1cnc2c(N)ncnc21)Oc1ccccc1 [GS-7340, reference compound] | 14 | > 10000 |  |  |  | Change value [2]: 3.2%; Purity after 6 hours [2]: 95.5%; Initial purity [2]: 98.7%; Change value [3]: 4.3%; Purity after 6 hours [3]: 94.4%; Initial purity [3]: 98.7%; Prototype concentration [4, 8]: 16.9 µM; Prototype concentration [4, 9]: 2448 µM; Prototype concentration [4, 10]: 14.5 µM; change of active metabolite-tenofovir concentration in PBMCs over the incubation time (in words) ([4]; 1 hour to 2 hours): almost the same; change of active metabolite-tenofovir released in plasma over the incubation time (in words) ([4]; 1 hour to 2 hours): increased significantly; Prototype concentration [4, 11]: 2357 µM; Prototype concentration [4, 12]: 13.0 µM; active metabolite-tenofovir detected in plasma (in words) [4]: certain active metabolite-tenofovir was detected; EC50 (HIV-1 (IIIb); [13]): 12 nM; CC50 at 3 days [5, 14]: > 150000 nM; metabolite-tenofovir detected in plasma [6]: 1-2%; total concentration of the active ingredient in PBMCs relative to tenofovir [6]: 30 times; total concentration of the active ingredient in PBMCs relative to tenofovir disoproxil [6]: 10 times
CC(C)OC(=O)C(C)(C)N[P@](=O)(CO[C@H](C)Cn1cnc2c(N)ncnc21)Oc1ccccc1 [Ia1] | 5 | > 10000 | significant inhibitory effect | better than that of the positive control GS7340 | without cytotoxicity | Change value [2]: 0.6%; Purity after 6 hours [2]: 98.1%; Initial purity [2]: 98.7%; stability compared to GS-7340 (in words) ([2]; acid medium and simulated gastric juice): significantly improved; Change value [3]: 0.5%; Purity after 6 hours [3]: 98.2%; Initial purity [3]: 98.7%; Prototype concentration [4, 8]: 12.4 µM; Prototype concentration [4, 9]: 1528 µM; Prototype concentration [4, 10]: 12.3 µM; change of active metabolite-tenofovir concentration in PBMCs over the incubation time (in words) ([4]; 1 hour to 2 hours): increased significantly; Prototype concentration [4, 11]: 1282 µM; Prototype concentration [4, 12]: 12.2 µM; concentration of active metabolite-tenofovir in PBMCs relative to GS-7340 ([4]; after incubation for 2 hours): about three times; active metabolite-tenofovir detected in plasma (in words) [4]: no active metabolite-tenofovir was detected; stability in plasma (in words) ([4]; fresh human whole blood, compared with GS-7340): significantly better than the positive control GS-7340; inhibitory effect on HIV virus (in words) (HIV-1 (IIIb)): strong inhibitory effect; EC50 (HIV-1 (IIIb); [13]): 8 nM; CC50 at 3 days [5, 14]: > 150000 nM; cytotoxicity (in words) (MT-2 cells): no cytotoxicity
CC(C)OC(=O)C(C)(C)N[P@@](=O)(CO[C@H](C)Cn1cnc2c(N)ncnc21)Oc1ccccc1 [Ia2] | 32 | > 10000 |  |  |  | 
CC(C)OC(=O)C(C)(C)NP(=O)(CO[C@H](C)Cn1cnc2c(N)ncnc21)Oc1ccccc1 (some centres unmarked) [Ia] | 21 | > 10000 |  |  |  | 
CC(C)OC(=O)C1(N[P@](=O)(CO[C@H](C)Cn2cnc3c(N)ncnc32)Oc2ccccc2)CC1 [Ib1] | 15 | > 10000 | significant inhibitory effect |  | without cytotoxicity | 
CC(C)OC(=O)C(C)(C)N[P@](=O)(CO[C@H](C)Cn1cnc2c(N)ncnc21)Oc1ccc(Cl)cc1 [Ic1] | 5.3 | > 10000 | significant inhibitory effect | better than that of the positive control GS7340 | without cytotoxicity | 
COc1ccc(O[P@@](=O)(CO[C@H](C)Cn2cnc3c(N)ncnc32)NC(C)(C)C(=O)OC(C)C)cc1 [Id1] | 6.2 | > 10000 | significant inhibitory effect | better than that of the positive control GS7340 | without cytotoxicity | 
CC(C)OC(=O)C(C)(C)N[P@](=O)(CO[C@H](C)Cn1cnc2c(N)ncnc21)Oc1cccc2ccccc12 [If1] | 7.5 | > 10000 | significant inhibitory effect | better than that of the positive control GS7340 | without cytotoxicity | 
Cc1cccc(C)c1O[P@@](=O)(CO[C@H](C)Cn1cnc2c(N)ncnc21)NC(C)(C)C(=O)OC(C)C [Ih1] | 5.9 | > 10000 | significant inhibitory effect | better than that of the positive control GS7340 | without cytotoxicity | 
CC(C)OC(=O)C(C)(C)N[P@](=O)(CO[C@H](C)Cn1cnc2c(N)ncnc21)Oc1ccc(F)cc1 [Ii1] | 8.3 | > 10000 |  | better than that of the positive control GS7340 |  | 
CC(C)OC(=O)C(C)(C)N[P@](=O)(CO[C@H](C)Cn1cnc2c(N)ncnc21)Oc1ccc(C(F)(F)F)cc1 [Ij1] | 7 | > 10000 | significant inhibitory effect | better than that of the positive control GS7340 | without cytotoxicity | 
CC(C)OC(=O)OCOP(=O)(CO[C@H](C)Cn1cnc2c(N)ncnc21)OCOC(=O)OC(C)C [Tenofovir Disoproxil, reference compound] |  |  |  |  |  | EC50 (HIV-1 (IIIb); Human immunodeficiency virus 1, MT2, 72 h, MT-2 cells infected with HIV-1 (IIIb), 3 days, read-out: EC50): 11 nM; CC50 at 3 days [5]: 16900 nM
